Assay [1] relates to Trametes versicolor laccase. Put plainly: Laccase-catalysed oxidation of iodide to tri-iodide with redox mediators (absorbance at 353 nm). It is filed as biochemical.
Method: The enzyme used in the study was a commercial laccase from Trametes versicolor (Sigma-Aldrich). […] Reactions were performed in transparent polymethyl methacrylate (PMMA) cuvettes or polystyrene micro titer plates. Change in absorbance (ΔA) at 420nm was recorded in intervals of 10sec for 3min. Samples with very high activities were diluted 10-fold with ddH2O before using them in the assay. Volumetric activities were calculated using an extinction coefficient (ε) of 0.036µmol^-1 1 cm^-1 (36000mol^-1 1 cm^-1) (22), according to the following equation (Δt in min, V in µl):
The laccase-catalysed oxidation of iodide (I^-) to iodine (I2) was monitored by the formation of triiodide (I3^-) at 353nm (laccase activity 0.12U ml^-1, 50mM iodide, citrate buffer pH 4.5, extinction coefficient of I3^- ε = 28000 mol^-1 1 cm^-1) (24, 17). […] Well-known synthetic (ABTS) and natural (acetosyringone [ACS], 4-hydroxybenzoic acid [HBA]) laccase mediators were tested (25, 26). […] The pH optima for mediator-enhanced oxidation of iodide were determined using the McIlvain citrate-phoshate buffer series.
Assay [2] deals with A. pullulans, C. picea, C. herbarum and D. pinicola. Description: Biotests 2: blue stain test of treated wood (EN 152-2, modified). It is filed as cell-based. As to conditions: 6 weeks of incubation, mean of stain categories 0-5 ±SE, n = 6, Mediator = ACS (50 µM). How it is done: Wood specimens (batch 1: 10 x 10 x 5 mm, length x width x height used in the biotests 1 and batch 2: 20 x 15 x 10 mm used in the biotests 2), free of defects, were extracted longitudinally from boards of Norway spruce trees grown in Switzerland, in order to minimize the influence of natural variability. All specimens were conditioned at 23C°(±1°C) and 50% (±5%) relative humidity (RH) until they reached an equilibrium moisture content of approximately 8-10%. Prior to the wood treatment the specimens were sterilized by autoclaving for 20min at 121°C(±1°C).
The enzymatic wood iodination and polymerisation were carried out by dipping three wood specimens of batch 1 in 30ml or 12 wood specimens of batch 2 in 200ml reaction solution (pH 4-6) containing one of the phenolic compounds (4mM), or potassium iodide (1 or 50mM) in the presence of laccase ([…]) for 18h at room temperature. Furthermore, to test the suitability of HBA (5mM) as mediator some additional experiments were performed. The chemical preservative VP 7/ 260a containing IPBC and propiconazole as active agents was used as a benchmark with a final concentration of 5% (v/v). The wood specimens were treated and used in the biological tests, with the following modifications: • Control = Wood treated with buffer • L = Wood treated with laccase alone • L-M = Wood treated with laccase and mediator • Iso = Wood treated with isoeugenol • Iso-L = Wood treated with isoeugenol and laccase • Iso-L-M = Wood treated with isoeugenol, laccase and mediator • Thy = Wood treated with thymol • Thy-L = Wood treated with thymol and laccase • Thy-L-M = Wood treated with thymol and laccase and mediator • Ix = Wood treated with 1 or 50mM iodide (x = concentration of iodide) • Ix-L = Wood treated with 1 or 50mM iodide and laccase • Ix-L-M = Wood treated with 1 or 50mM iodide, laccase and mediator • VP7 = Wood treated with VP 7/ 260a (IPBC and propiconazole)
After the reaction all wood specimens of batch 1 had undergone a leaching procedure comprising five cycles of incubation in ddH2O (liquid volume min. 10 times the specimen volume, 100rpm, room temperature, 24h) and water exchange. Half of the wood specimens of batch 2 were exposed to leaching for two weeks including nine steps of water changing according to EN 84 (29), the other half was used without leaching in biotests.
The resistance of the treated wood against blue stain and wood decay fungi was determined in biotests 2 according to the European standards EN 152-2 (30) and EN 113 (31) with slight modifications. The EN 152 is a classical test for blue staining, originally intended to determine the effectiveness of a preservative treatment against blue stain in service. The treated wood samples were dipped into a spore suspension of A. pullulans, C. picea, C. herbarum and D. pinicola (cfu: > 10^5) and placed horizontally in a Kolle flask containing vermiculite (18g) which was inoculated additionally with 40ml of the spore suspension. The incubated specimens were stored in an incubation room at 22°C and 70% RH (6 weeks). After incubation the surface was evaluated by classifying the percentage of blue-stain discolouration from 0 to 5 according to Thwaites et al. (32) (Table 1). Table 1: Determination of the blue stain discoloration

For another assay, the system named is Aureobasidium pullulans. Put plainly: Growth inhibition by iodinated and non-iodinated phenols on agar plates (Example 2). It is filed as cell-based. The following applies: ± standard deviation, n = 6; for inhibition at 1000 µM: 1mM in 2% malt extract agar; for inhibition at 2000 µM: 2mM in 2% malt extract agar; for inhibition at 4000 µM: 4mM in 2% malt extract agar. How it is done: (§1) Vanillin and ethyl-vanillin (4 mM) were incubated in the presence of commercial T. versicolor laccase (250 mg per L), 0.1 mM mediator ABTS and 50 mM potassium iodide in citrate-phosphate buffer (pH 5.0) for 20 h at room temperature. The reaction vessels with a liquid volume of 1 L were aerated with pressurized air through a frit. Reaction products were extracted by addition of 250 mL ethyl-acetate, thorough mixing and subsequent separation of the organic phase. The solvent was removed in a rotary evaporator at 50°C under vacuum until solid products were obtained. Reaction products were re-dissolved in ethyl-acetate and analysed by HPLC-MS.
(§2) For biotests, iodo-vanillin and iodo-ethyl-vanillin were dissolved to a concentration of 0.4 M in DMSO (stock solution). The non-iodinated reference compounds (educts) vanillin and ethyl-vanillin were dissolved to a concentration of 0.1 M in ethanol. All compounds were evaluated on agar plates (Ø 90mm). The compounds were added to 2% malt extract agar after autoclaving to final concentrations of 1, 2 and 4 mM, respectively. Control plates contained similar amounts of DMSO or ethanol as added with stock solutions. Supplemented agar plates were inoculated in the centre with a mycelium agar disc (9-mm diameter) taken from the submargins of 14-day old cultures of the basidiomycetes Oligoporus placenta, Gloephyllum trabeum, Coniophora puteana, Trametes versicolor and the ascomycete Aureobasidium pullulans. Plates were incubated at 22 °C and 70% RH. The radial fungal growth was estimated by measuring the colony diameter, and the growth inhibition was expressed as percentage reduction of this value after similar incubation times. Growth inhibition data of 6 replicate plates per compound/control were arcsine transformed prior to statistical analysis (ANOVA) and back transformed to numerical values for visualization. Means were separated using Tukey's HSD (honestly significant difference) test at significance levels with P values of <0.05 and <0.001. The statistical package used for all analyses was SPSS (version 17.0; SPSS Inc., Chicago, IL).

Another assay relates to Coniophora puteana. The assay is described as above. In kind it is cell-based. The following applies: ± standard deviation, n = 6, read-out: Growth inhibition, C. puteana; for inhibition at 1000 µM: 1mM in 2% malt extract agar; for inhibition at 2000 µM: 2mM in 2% malt extract agar; for inhibition at 4000 µM: 4mM in 2% malt extract agar. The method, then:
as §1, §2

The test system of a further assay is Gloephyllum trabeum. The description is as above. It is filed as cell-based. The following applies: Gloeophyllum trabeum, ± standard deviation, n = 6, read-out: Growth inhibition, G. trabeum; for inhibition at 1000 µM: 1mM in 2% malt extract agar; for inhibition at 2000 µM: 2mM in 2% malt extract agar; for inhibition at 4000 µM: 4mM in 2% malt extract agar. How it is done:
as §1, §2

The next assay deals with Oligoporus placenta. The description is as above. It is filed as cell-based. As to conditions: Rhodonia placenta, ± standard deviation, n = 6, read-out: Growth inhibition, O. placenta; for inhibition at 1000 µM: 1mM in 2% malt extract agar; for inhibition at 2000 µM: 2mM in 2% malt extract agar; for inhibition at 4000 µM: 4mM in 2% malt extract agar. The method, then: as §1, §2

For another assay, the system named is Trametes versicolor. The description is as above. It is filed as cell-based. The following applies: ± standard deviation, n = 6, read-out: Growth inhibition, T. versicolor; for inhibition at 1000 µM: 1mM in 2% malt extract agar; for inhibition at 2000 µM: 2mM in 2% malt extract agar; for inhibition at 4000 µM: 4mM in 2% malt extract agar. The method, then: as §1, §2

Molecules are shown by their SMILES.

Regarding `O=C(O)c1ccc(O)cc1` [HBA, 4-hydroxybenzoic acid], in assay [1] (data not shown), the function as mediator entry is given as “not to have a function as mediator”.
Consider `[I-].[K+]` [I1, potassium iodide], for which, in assay [2] (wood batch 2, leached (EN 84)), the “Blue stain discoloration, Leached” value turned out to be 3.7 ±0.4. Further, the “Blue stain discoloration, Non-leached” value in assay [2] (wood batch 2, non-leached) is 2.2 ±0.4.
For `COc1cc(C=O)cc(I)c1O` [5-Iodo-Vanillin (commercial), 4-hydroxy-3-iodo-5-methoxybenzaldehyde], the inhibition at 1000 µM is 1.36 ± 1.4% with Aureobasidium pullulans; 66.4% in the assay with Coniophora puteana; 40.9% with Gloephyllum trabeum; 17.7% in the assay with Oligoporus placenta; 78.5% with Trametes versicolor. The inhibition at 2000 µM in the assay with Aureobasidium pullulans was found to be 7.31%; in the assay on Coniophora puteana it was 65.1%; in the assay with Gloephyllum trabeum, 37.3%; in the assay on Oligoporus placenta, 22.5%; in the assay on Trametes versicolor, 82%. Moreover, the inhibition at 4000 µM with Aureobasidium pullulans is 1.51 ± 2.4%; in the assay with Coniophora puteana, 56.5%; with Gloephyllum trabeum, 38.1%; in the assay with Oligoporus placenta, 9.06%; in the assay with Trametes versicolor, 82.9%.
In the case of `CCn1c(=NN=c2sc3cc(S(=O)(=O)O)ccc3n2CC)sc2cc(S(=O)(=O)O)ccc21` [ABTS, 2,2-azino-bis(3-ethylbenzothiazoline-6-sulfonic acid)], in assay [1] (pH 4, 10µM mediator), the laccase-catalysed tri-iodide formation is 0.13 µM/min/mg.
In the case of `COc1cc(C(C)=O)cc(OC)c1O` [ACS, acetosyringone], in assay [1] (pH 5, 50µM mediator), the laccase-catalysed tri-iodide formation is 0.89 µM/min/mg.
Turning to `CCOc1cc(C=O)ccc1O` [Ethylvanillin], the inhibition at 1000 µM in the assay with Coniophora puteana worked out at 0%; in the assay on Gloephyllum trabeum, 15.8%; in the assay with Oligoporus placenta it was 0%; in the assay on Trametes versicolor, 10.2%. In addition, the inhibition at 2000 µM is 21.1 ± 18.3% with Coniophora puteana, 23.9% in the assay on Gloephyllum trabeum, 0% in the assay on Oligoporus placenta and 29.9% with Trametes versicolor. For the same molecule, the results for the inhibition at 4000 µM in the assay with Coniophora puteana, in the assay with Oligoporus placenta and with Trametes versicolor were 31.2 ± 21.2%, 0% and 11.4%, respectively.
Consider `COc1cc(C=O)ccc1O` [Vanillin, 4-hydroxy-3-methoxybenzaldehyde], for which the inhibition at 1000 µM with Aureobasidium pullulans was determined as 0%; in the assay on Coniophora puteana, 18.2 ± 31.6%; with Gloephyllum trabeum, 2.19 ± 1%; in the assay on Oligoporus placenta, 0%; in the assay on Trametes versicolor, 6.59 ± 4.2%. Also, the inhibition at 2000 µM in the assay on Aureobasidium pullulans turned out to be 8.52 ± 14.8%; in the assay on Coniophora puteana, 24.2%; in the assay with Gloephyllum trabeum, 13.4%; in the assay with Oligoporus placenta, 11.8 ± 8.5%; with Trametes versicolor it was 18.8%. For the same molecule, the inhibition at 4000 µM came to 17.9 ± 11.5% in the assay on Aureobasidium pullulans; 61.5% in the assay on Coniophora puteana; 51.4% in the assay on Gloephyllum trabeum; 55.3% in the assay on Oligoporus placenta; 42% in the assay with Trametes versicolor.

What is called inhibition is the drop in the measured response relative to a control, in per cent.

For the origin of these results see patent EP2871962B1, “WOOD PROTECTION AGAINST MICROORGANISMS BY LACCASE-CATALYSED IODINATION” (EMPA Eidgenössische Materialprüfungs- und Forschungsanstalt, priority 2012, dated 2013).
